Laboratory results published in PubChem BioAssay AID1083 (University of Pittsburgh Molecular Library Screening Center, 2008).
The source made the active and inactive calls. How the calls were made is not given here.

Target: Serine/threonine-protein kinase PLK1 (Homo sapiens) (UniProt P53350)
Assay: PLK1 polo-box domain peptide-binding inhibitors, SAR follow-up, biochemical, fluorescence polarization, purchased analogs, concentration response (AID 1083)
Settings: Plk1 PBD peptide binding

Chain of Serine/threonine-protein kinase PLK1 (Homo sapiens) (P53350 whole entry, looked up, the tested form may be a part): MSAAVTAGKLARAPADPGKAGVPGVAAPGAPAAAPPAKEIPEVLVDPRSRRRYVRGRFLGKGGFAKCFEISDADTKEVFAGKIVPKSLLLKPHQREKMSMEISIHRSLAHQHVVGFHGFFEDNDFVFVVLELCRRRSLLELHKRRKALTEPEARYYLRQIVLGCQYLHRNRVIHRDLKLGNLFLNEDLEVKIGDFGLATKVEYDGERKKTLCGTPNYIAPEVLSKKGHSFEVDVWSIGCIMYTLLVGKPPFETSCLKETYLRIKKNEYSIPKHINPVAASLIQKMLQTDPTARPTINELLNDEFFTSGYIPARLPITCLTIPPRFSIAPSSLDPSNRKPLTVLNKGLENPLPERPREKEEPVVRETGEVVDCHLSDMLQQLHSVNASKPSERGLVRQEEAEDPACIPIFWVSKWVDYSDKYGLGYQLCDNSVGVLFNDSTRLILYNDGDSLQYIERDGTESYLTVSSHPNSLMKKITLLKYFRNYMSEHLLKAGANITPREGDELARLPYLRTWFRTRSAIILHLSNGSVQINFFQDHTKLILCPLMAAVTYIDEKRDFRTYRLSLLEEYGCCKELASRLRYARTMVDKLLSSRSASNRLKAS

Structure (SMILES) | IC50
Cn1c(=O)c2nc(-c3ccccc3)c(-c3ccccc3)nc2n(C)c1=O | > 50 µM (inactive)
Cc1ccc(C(=O)CN2C=CC(=C(O)NCc3ccccc3)C=C2)cc1 | > 50 µM (inactive)
Cn1c(=O)c2nc(-c3ccccc3)c(=O)n(C)c2n(C)c1=O | > 50 µM (inactive)
COc1ccc(-c2nc3c(=O)n(C)c(=O)nc-3n(C)n2)cc1OC | 0.295 µM
CCOC(=O)c1ccc(NC(=O)c2cncc(Br)c2)cc1 | > 50 µM (inactive)
COc1cc(C=C2C(=O)NC(=O)NC2=O)ccc1OCc1ccc(Cl)cc1Cl | > 50 µM (inactive)
COC(=O)c1ccc(NC(=O)c2cc(-c3ccc(C)o3)nc3ccccc23)cc1 | > 50 µM (inactive)
O=C(COC(=O)c1ccc(NC(=O)c2ccc([N+](=O)[O-])cc2)cc1)c1ccccc1 | > 50 µM (inactive)
CC(=O)N(CN1C(=O)c2cccc([N+](=O)[O-])c2C1=O)c1ccc2c(c1)oc1ccccc12 | > 50 µM (inactive)
COc1ccc(-c2nnc3[nH]c(=O)n(C)c(=O)c3n2)cc1OC | > 50 µM (inactive)
Cn1c(=O)[nH]c(=O)c2nc(-c3ccccc3)c(-c3ccccc3)nc21 | > 50 µM (inactive)
CCOC(=O)c1ccc(NC(=O)C2Cc3ccccc3C(=O)O2)cc1 (stereo not drawn) | > 50 µM (inactive)
Cc1cc(-n2c(C)cc(C=C3C(=O)NC(=O)NC3=O)c2C)ccc1I | 45.2 µM
CC(=O)N(CN1C(=O)c2ccccc2C1=O)c1ccc(F)cc1 | > 50 µM (inactive)
CC(=O)N(/N=C1\Sc2ccccc2C1=O)c1cccc(Br)c1 | 20.9 µM
CCOC(=O)c1ccc(N=Cc2c(O)n(Cc3ccccc3Cl)c(=O)[nH]c2=O)cc1 | > 50 µM (inactive)
COc1ccc(-c2nnc3[nH]c(=O)n(C)c(=O)c3n2)cc1 | > 50 µM (inactive)
CC(=O)N(CN1C(=O)c2ccccc2C1=O)c1cc(C)ccc1C | > 50 µM (inactive)
CCOC(=O)c1ccc(N=Cc2c(O)[nH]c(=O)[nH]c2=O)cc1 | > 50 µM (inactive)

Structure (SMILES) | IC50
CCN(CC)CCOC(=O)c1ccc(N=Cc2c(O)n(Cc3ccccc3)c(=O)[nH]c2=O)cc1 | > 50 µM (inactive)
CC(=O)N(CN1C(=O)c2ccccc2C1=O)c1ccc(C)cc1 | > 50 µM (inactive)
CCOC(=O)c1ccc(NC(=O)c2c(C)cc(=O)oc2C)cc1 | > 50 µM (inactive)
CCCOC(=O)c1ccc(NC(=O)c2cc(-c3cccs3)nc3c(C)c(Cl)ccc23)cc1 | > 50 µM (inactive)
COc1ccc(N(CN2C(=O)c3ccccc3C2=O)C(C)=O)cc1 | > 50 µM (inactive)
CCOC(=O)c1ccc(NC(=O)c2cc(=O)[nH]c3ccccc23)cc1 | > 50 µM (inactive)
CC(OC(=O)c1ccc(NC(=O)c2ccc(Br)cc2)cc1)C(=O)c1ccccc1 (stereo not drawn) | > 50 µM (inactive)
CCN(CC)CCOC(=O)c1ccc(NC(=O)c2cc(OC)c(OC)cc2OC)cc1 | > 50 µM (inactive)
CCOC(=O)c1ccc(NC(=O)C2COc3ccccc3O2)cc1 (stereo not drawn) | > 50 µM (inactive)
CCOC(=O)c1ccc(N=Cc2c(O)n(-c3ccc(OCC)cc3)c(=O)[nH]c2=O)cc1 | > 50 µM (inactive)
O=C(COC(=O)c1ccc(NC(=O)c2ccc(Cl)cc2)cc1)c1ccccc1 | > 50 µM (inactive)
CCn1nc(-c2ccc(OC)cc2)nc2c(=O)n(C)c(=O)nc1-2 | 0.912 µM
CCCCCC(=O)N(CN1C(=O)c2ccccc2C1=O)c1ccccc1OC | > 50 µM (inactive)
CCCCCCC(=O)N(CN1C(=O)c2ccccc2C1=O)c1ccc(OCc2ccccc2)cc1 | > 50 µM (inactive)
CCOC(=O)c1ccc(NC(=O)c2cc3ccccc3oc2=O)cc1 | > 50 µM (inactive)
CCOC(=O)c1ccc(NC(=O)c2ccc(NC(=O)CC)cc2)cc1 | > 50 µM (inactive)
CC(=O)N(CN1C(=O)c2ccccc2C1=O)c1ccc(Cl)c(Cl)c1 | > 50 µM (inactive)
CCn1nc(-c2ccccc2Cl)nc2c(=O)n(C)c(=O)nc1-2 | 1.55 µM
CCOC(=O)c1ccc(NC(=O)c2ccc3nc(N)sc3c2)cc1 | > 50 µM (inactive)
